Measured values published in patent publication US20220117938A1, “COMBINATON THERAPY WITH A DON PRODRUG AND AN IMMUNE CHECKPOINT INHIBITOR” (DRACEN PHARMACEUTICALS, INC., priority 2019, published 2022).

System: MC-38 tumors
Experiment: Anti-tumor efficacy of Compound 1 in the subcutaneous MC-38 model: schedule comparison (Example 3)
Assay type: in vivo, Mus musculus
Settings: for MST: endpoint tumor volume 2000 mm^3
Method: Female C57BL/6 mice were inoculated subcutaneously at right flank with MC-38 cells for tumor development. Six days after tumor inoculation, 64 mice with tumor size ranging from 50-100 mm^3 (average tumor size 71 mm^3) were selected and assigned into 8 groups using stratified randomization with 8 mice per group based upon their tumor volumes. The treatments were started from the day of randomization (defined as D0), Group 1 was treated with Vehicle (Tween 80:Ethanol:Saline—5:5:90 v/v/v), S.C. QD*20 days, Group 2 was treated with Compound 1 at 1 mpk S.C. QD*28 days, Group 3 was treated with Compound 1 at 0.5 mpk S.C. QD*28 days, Group 4 was treated with Compound 1 at 1.4 mpk S.C. 5-days ON 2-days OFF×4 cycles, Group 5 was treated with Compound 1 at 0.7 mpk S.C. 5-days ON 2-days OFF×4 cycles, Group 6 was treated with Compound 1 at 3 mpk qd×5, followed by 1 mpk qd×23, S.C. QD, Group 7 was treated with Compound 1 at 1.5 mpk qd×5, followed by 0.5 mpk qd×23, S.C. QD and Group 8 was treated with Compound 1 at 1.4 mpk 10-days ON 4-days OFF×2 cycles, S.C.
Species: Mus musculus; Strain: C57BL/6; Age: 6-8 weeks; Sex: female; Body weight (at treatment start): 16-20 g.
The MC-38 tumor cells were maintained in vitro as a monolayer culture in DMEM medium supplemented with 10% heat inactivated fetal bovine serum and 100 μg/mL penicillin streptomycin at 37° C. in an atmosphere of 5% CO2 in air. The tumor cells were routinely subcultured twice weekly by trypsin-EDTA treatment. The cells growing to a confluency around 70%-80% were harvested and counted for tumor inoculation. The cultured MC-38 were harvested, re-suspended in base medium at a density of 1×10^7 cells/mL with viability>90%. Each mouse was inoculated subcutaneously at the right flank with 1×10^6 cells in 0.1 ml base medium for tumor development.
The treatments were started on day 6 after tumor inoculation when the tumor size reached 50-100 mm^3 (average tumor size 71 mm^3). Each group consisted of 8 tumor-bearing mice. The testing article was administrated to the mice at a dosing volume of 10 mL/Kg according to the predetermined regimen as shown in Table 3-1.
Tumor sizes were measured three times a week in two dimensions using a caliper, and the volume expressed in mm^3 using the formula: V=0.5 a×b^2 where a and b are the long and short diameters of the tumor, respectively. The tumor sizes were then used for the calculations of both tumor growth inhibition (TGI) and T/C values.
TGI is calculated for each group using the formula: […]
TVTreatment_DayN is the average tumor volume of a treatment group on a given day, TVTreatment_Day0 is the average tumor volume of the treatment group on the first day of treatment, TVVehicle_DayN is the average tumor volume of the vehicle control group on a given day, and TVVehicle_Day0 is the average tumor volume of the vehicle group on the first day of treatment.
The T/C value (in percent) is an indication of antitumor effectiveness, T/C (%)=RTVTreatment/RTVControl×100% (RTVTreatment: the mean RTV of the treatment group; RTVControl: the mean RTV of the vehicle treated group). RTV (relative tumor volume)=TVDayN/TVDay0. TVDayN and TVDay0 is the tumor volume on day N and Day 0 respectively. T/C (%)≤42% is considered as significant antitumor activity and <10% is considered as highly significant antitumor activity by the National Cancer Institute criteria.
Relative change of body weight (RCBW) of each mouse was calculated according to the following formula: […]
Animal survival curve: When an individual animal reached to the termination endpoint (TV>2000 mm^3), the mouse was euthanized. The time from treatment initiation to the termination was deemed as its survival time. Survival curve was plotted by Kaplan-Meier method. Median survival time (MST) was calculated for each group. Increase of life span (ILS) was calculated according to the following formula: […]
ILS (%)>25% is considered as a biologically significant survival benefit. […]

[1] = 0.7 mpk S.C. 5-days ON 2-days OFF
[2] = 1.4 mpk days ON 2-days OFF x 4 cycles
[3] = 1.5 mpk qdx5, followed by 0.5 mpk qdx23
[4] = 3 mpk qdx5, followed by 1 mpk qdx23
[5] = Day 13, 0.7 mpk S.C. 5-days ON 2-days OFF
[6] = Day 13, 1.4 mpk 10-days ON 4-days OFF
[7] = Day 13, 1.4 mpk days ON 2-days OFF x 4 cycles
[8] = Day 13, 1.5 mpk qdx5, followed by 0.5 mpk qdx23
[9] = Day 13, 3 mpk qdx5, followed by 1 mpk qdx23

Compound: CC(=O)N[C@@H](Cc1c[nH]c2ccccc12)C(=O)N[C@@H](CCC(=O)C=[N+]=[N-])C(=O)OC(C)C [Compound 1, Isopropyl (S)-2-((S)-2-acetamido-3-(1H-indol-3-yl)propanamido)-6-diazo-5-oxohexanoate]
- ILS (0.5 mpk QD*28 days): 126%
- RTV at day 13 (0.5 mpk QD*28 days): 0 ± 0
- MST (0.5 mpk QD*28 days): 43 days
- ILS [1]: 208%
- RTV at day 13 [1]: 0 ± 0
- MST [1]: 58.5 days
- ILS (1 mpk QD*28 days): 126%
- RTV at day 13 (1 mpk QD*28 days): 0 ± 0
- MST (1 mpk QD*28 days): 43 days
- ILS (1.4 mpk 10-days ON 4-days OFF): 121%
- RTV at day 13 (1.4 mpk 10-days ON 4-days OFF): 0 ± 0
- MST (1.4 mpk 10-days ON 4-days OFF): 42 days
- ILS [2]: 153%
- RTV at day 13 [2]: 0 ± 0
- MST [2]: 48 days
- ILS [3]: 121%
- RTV at day 13 [3]: 0 ± 0
- MST [3]: 42 days
- ILS [4]: 134%
- RTV at day 13 [4]: 0 ± 0
- MST [4]: 44.5 days
- Tumor volume (Mean ± SEM) (Day 11, Group 2: 1 mg/kg qdx28, sc): 15 ± 3 mm^3
- Tumor volume (Mean ± SEM) (Day 11, Group 3: 0.5 mg/kg qdx28, sc): 29 ± 3 mm^3
- Tumor volume (Mean ± SEM) (Day 11, Group 4: 1.4 mg/kg 5-days ON 2-days OFF x 4 cycles, sc): 14 ± 2 mm^3
- Tumor volume (Mean ± SEM) (Day 11, Group 5: 0.7 mg/kg 5-days ON 2-days OFF x 4 cycles, sc): 20 ± 4 mm^3
- Tumor volume (Mean ± SEM) (Day 11, Group 6: 3 mpk qdx5 followed by 1 mpk qdx23, sc): 24 ± 2 mm^3
- Tumor volume (Mean ± SEM) (Day 11, Group 7: 1.5 mpk qdx5 followed by 0.5 mpk qdx23, sc): 21 ± 2 mm^3
- Tumor volume (Mean ± SEM) (Day 11, Group 8: 1.4 mg/kg 10-days ON 4-days OFF x 2 cycles, sc): 28 ± 4 mm^3
- T/C (Day 13, 0.5 mpk QD*28 days): 0%
- TGI (Day 13, 0.5 mpk QD*28 days): 103.48%
- T/C [5]: 0%
- TGI [5]: 104.42%
- T/C (Day 13, 1 mpk QD*28 days): 0%
- TGI (Day 13, 1 mpk QD*28 days): 104.87%
- T/C [6]: 0%
- TGI [6]: 104.10%
- T/C [7]: 0%
- TGI [7]: 104.49%
- T/C [8]: 0%
- TGI [8]: 104.24%
- T/C [9]: 0%
- TGI [9]: 104.29%
- Tumor volume (Mean ± SEM) (Day 13, Group 2: 1 mg/kg qdx28, sc, 1 mg/kg): 5 ± 2 mm^3
- Tumor volume (Mean ± SEM) (Day 13, Group 3: 0.5 mg/kg qdx28, sc, 0.5 mg/kg): 24 ± 2 mm^3
- Tumor volume (Mean ± SEM) (Day 13, Group 4: 1.4 mg/kg 5-days ON 2-days OFF x 4 cycles, sc, 1.4 mg/kg): 11 ± 3 mm^3
- Tumor volume (Mean ± SEM) (Day 13, Group 5: 0.7 mg/kg 5-days ON 2-days OFF x 4 cycles, sc, 0.7 mg/kg): 13 ± 4 mm^3
- Tumor volume (Mean ± SEM) (Day 13, Group 6: 3 mpk qdx5 followed by 1 mpk qdx23, sc): 14 ± 3 mm^3
- Tumor volume (Mean ± SEM) (Day 13, Group 7: 1.5 mpk qdx5 followed by 0.5 mpk qdx23, sc): 15 ± 3 mm^3
- Tumor volume (Mean ± SEM) (Day 13, Group 8: 1.4 mg/kg 10-days ON 4-days OFF x 2 cycles, sc, 1.4 mg/kg): 17 ± 4 mm^3
- Tumor volume (Mean ± SEM) (Day 15, Group 2: 1 mg/kg qdx28, sc): 1 ± 1 mm^3
- Tumor volume (Mean ± SEM) (Day 15, Group 3: 0.5 mg/kg qdx28, sc): 17 ± 3 mm^3
- Tumor volume (Mean ± SEM) (Day 15, Group 4: 1.4 mg/kg 5-days ON 2-days OFF x 4 cycles, sc): 2 ± 1 mm^3
- Tumor volume (Mean ± SEM) (Day 15, Group 5: 0.7 mg/kg 5-days ON 2-days OFF x 4 cycles, sc): 6 ± 3 mm^3
- Tumor volume (Mean ± SEM) (Day 15, Group 6: 3 mpk qdx5 followed by 1 mpk qdx23, sc): 6 ± 2 mm^3
- Tumor volume (Mean ± SEM) (Day 15, Group 7: 1.5 mpk qdx5 followed by 0.5 mpk qdx23, sc): 9 ± 2 mm^3
- Tumor volume (Mean ± SEM) (Day 15, Group 8: 1.4 mg/kg 10-days ON 4-days OFF x 2 cycles, sc): 14 ± 3 mm^3
- Tumor volume (Mean ± SEM) (Day 18, Group 2: 1 mg/kg qdx28, sc): 1 ± 0 mm^3
- Tumor volume (Mean ± SEM) (Day 18, Group 3: 0.5 mg/kg qdx28, sc): 10 ± 2 mm^3
- Tumor volume (Mean ± SEM) (Day 18, Group 4: 1.4 mg/kg 5-days ON 2-days OFF x 4 cycles, sc): 0 ± 0 mm^3
- Tumor volume (Mean ± SEM) (Day 18, Group 5: 0.7 mg/kg 5-days ON 2-days OFF x 4 cycles, sc): 3 ± 1 mm^3
- Tumor volume (Mean ± SEM) (Day 18, Group 6: 3 mpk qdx5 followed by 1 mpk qdx23, sc): 7 ± 3 mm^3
- Tumor volume (Mean ± SEM) (Day 18, Group 7: 1.5 mpk qdx5 followed by 0.5 mpk qdx23, sc): 8 ± 2 mm^3
- Tumor volume (Mean ± SEM) (Day 18, Group 8: 1.4 mg/kg 10-days ON 4-days OFF x 2 cycles, sc): 8 ± 3 mm^3
- Tumor volume (Mean ± SEM) (Day 20, Group 2: 1 mg/kg qdx28, sc): 1 ± 0 mm^3
